{
  "source": "patent US20130045991A1",
  "about": "“NEUROPROTECTIVE MODULATION OF NMDA RECEPTOR SUBTYPE ACTIVITIES” (THE UNIVERSITY OF BRITISH COLUMBIA, priority 2005, published 2013)",
  "key": {"cortical neurons [1]": {"tested_on": "cortical neurons", "experiment": "Neuronal apoptosis with bicuculline-enhanced activation of synaptic NMDA receptors", "assay_type": "cell-based, rat", "conditions": "bicuculline 50 μM, 4 h; for neuronal apoptosis on co-application with bicuculline: apoptosis quantified 20 h after", "description": "The function of the NR2A and NR2B synaptic receptor subpopulations in mediating neuronal survival or death is also illustrated herein, as follows. To increase activation of synaptic NMDA receptors by synaptically released glutamate, neurons were incubated with the GABAA receptor antagonist bicuculline (50 μM, 4 h). Bicuculline increases neuronal excitation by blocking the GABAA receptor-mediated synaptic inhibition and thereby enhances action potential-dependent synchronized release of glutamate from presynaptic terminals. Neuronal apoptosis was quantified 20 h following the treatments. […] The NR2A blockade-induced neuronal apoptosis was demonstrably mediated by synaptic NR2B-containing receptors, as it was prevented in the presence of Ro 25-6981 (p<0.01; FIG. 3B).\n(§1) Dissociated cultures of cortical neurons were prepared from 18-day Sprague-Dawley rat embryos as described previously (Mielke et al., 2005). To obtain mixed cortical cultures enriched with neurons, uridine (10 μM) and 5-Fluor-2′-deoxyuridine (10 μM) were added to the culture medium at 3 DIV and maintained for 48 h, to inhibit non-neuronal cell proliferation, before the cultures were shifted back to the normal culture medium. Mature neurons (11-14 DIV) were used for experiments. To induce neuronal apoptosis, cortical cultures were stimulated with NMDA (50 μM) and glycine (10 μM) for 20 min, or STS (100 nM) for 1 h in Mg2+-free extracellular solution (ECS) containing (mM): 25 HEPES acid, 140 NaCl, 33 glucose, 5.4 KCl and 1.3 CaCl2, with pH 7.35 and osmolarity 320-330 mOsm. […]\n(§2) To visualize injured neurons, Hoechst-33342 (10 μg/ml) was added to the culture medium 20 h after treatments and incubated for 45 min at 37 °C. Images were taken with a Leica DMIRE2 fluorescence microscope. Quantitative assessment of neuronal apoptosis was performed 20 h following treatments using a Cell Death Detection ELISAPLUS Kit (Roche Applied Science). Absorbance readings were determined using a spectrophotometric microplate reader. […] Data are expressed as the difference in apoptosis relative to control and are expressed as a percentage."}, "[2]": {"molecular_target": "T1, extrasynaptic NMDA receptors (Rattus norvegicus, UniProt Q00960)", "T1 construct": "both NR2A- and NR2B-containing receptor subtypes are expressed in these neurons; endogenous in cells; host or cells: primary cortical neurons from E18 Sprague-Dawley rat embryos, 11-14 DIV", "T1 sequence (Q00960 27-1482, other chains not shown)": "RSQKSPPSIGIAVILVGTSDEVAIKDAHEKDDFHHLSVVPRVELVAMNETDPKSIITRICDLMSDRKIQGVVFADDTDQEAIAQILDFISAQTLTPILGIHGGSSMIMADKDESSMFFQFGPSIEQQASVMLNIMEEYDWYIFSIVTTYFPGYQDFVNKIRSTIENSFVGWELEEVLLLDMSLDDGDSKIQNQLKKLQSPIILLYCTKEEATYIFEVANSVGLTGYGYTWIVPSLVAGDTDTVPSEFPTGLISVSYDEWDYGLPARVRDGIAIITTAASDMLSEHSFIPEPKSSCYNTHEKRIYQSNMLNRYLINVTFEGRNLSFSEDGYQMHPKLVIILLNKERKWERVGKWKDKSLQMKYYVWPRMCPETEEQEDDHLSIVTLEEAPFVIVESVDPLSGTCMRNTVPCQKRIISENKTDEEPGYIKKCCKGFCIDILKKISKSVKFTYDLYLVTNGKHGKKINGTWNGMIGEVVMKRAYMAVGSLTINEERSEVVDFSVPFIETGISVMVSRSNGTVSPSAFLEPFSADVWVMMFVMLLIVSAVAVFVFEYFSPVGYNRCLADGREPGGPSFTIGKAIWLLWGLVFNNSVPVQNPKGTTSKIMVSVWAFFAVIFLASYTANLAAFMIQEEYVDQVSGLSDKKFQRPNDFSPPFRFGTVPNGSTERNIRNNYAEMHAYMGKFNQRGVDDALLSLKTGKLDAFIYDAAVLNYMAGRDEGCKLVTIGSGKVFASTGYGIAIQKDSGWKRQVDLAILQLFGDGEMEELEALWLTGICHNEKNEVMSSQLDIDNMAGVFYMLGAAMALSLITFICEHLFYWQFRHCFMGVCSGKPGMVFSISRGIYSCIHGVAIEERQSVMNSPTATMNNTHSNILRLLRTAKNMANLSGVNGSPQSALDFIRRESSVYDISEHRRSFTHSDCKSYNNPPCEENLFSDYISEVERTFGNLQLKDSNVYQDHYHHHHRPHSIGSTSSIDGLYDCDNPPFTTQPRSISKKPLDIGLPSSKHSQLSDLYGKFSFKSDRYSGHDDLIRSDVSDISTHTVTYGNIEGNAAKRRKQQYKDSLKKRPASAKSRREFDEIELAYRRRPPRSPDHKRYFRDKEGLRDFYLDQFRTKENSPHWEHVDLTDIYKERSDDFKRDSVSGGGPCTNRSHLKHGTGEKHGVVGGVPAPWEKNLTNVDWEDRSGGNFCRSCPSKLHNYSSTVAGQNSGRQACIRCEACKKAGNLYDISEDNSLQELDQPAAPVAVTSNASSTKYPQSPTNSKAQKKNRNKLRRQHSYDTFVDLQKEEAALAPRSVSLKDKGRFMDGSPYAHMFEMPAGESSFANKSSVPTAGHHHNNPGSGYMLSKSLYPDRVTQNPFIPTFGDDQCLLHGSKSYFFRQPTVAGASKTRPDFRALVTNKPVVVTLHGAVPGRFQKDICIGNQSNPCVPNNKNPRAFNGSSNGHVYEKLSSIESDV", "experiment": "NMDA-induced currents mediated by extrasynaptic NMDA receptors", "assay_type": "cell-based", "conditions": "NMDA 200 μM after MK-801/bicuculline block of synaptic receptors; Ro 25-6981 0.5 μM", "description": "(§3) In contrast to the predominant expression of NR2A-containing receptors at synapses, NR2B-containing receptors are thought to be the predominant NMDA receptor expressed at extrasynaptic sites in mature neurons (Massy et al., 2004; Tovar et al., 2002). […] The selective blockade of synaptic NMDA receptors was achieved by co-application of bicuculline (50 μM) and MK-801 (10 μM) for 10 min. Bicuculline enhances synaptic release of glutamate and thereby selectively activates synaptic NMDA receptors (Hardingham et al., 2002). MK-801, as an irreversible blocker of open NMDA receptor channels (Tovar et al., 2002; Huettner et al., 1988), can only block the bicuculline-activated synaptic NMDA receptors, and cannot block extrasynaptic channels that are not activated during bicuculline application. […] Little recovery was observed one hour following wash-out of the drugs. The currents gated through extrasynaptic NMDA receptors were then induced by application of NMDA (200 μM) via a fast perfusion system after washing out bicuculline and MK-801. […] On average, about 26.6±2.3% (n=5) of total currents gated by extrasynaptic NMDA receptors were mediated by NR2A-containing receptors (FIG. 4Ad).\n(§4) Recording of NMDA-induced currents mediated by extrasynaptic NMDA Receptors: Extrasynaptic NMDA receptors were isolated by a specific blockade of synaptic NMDA receptors with NMDA receptor open channel blocker MK-801 as described above. The coverslip with the treated cortical neurons was transferred to a recording chamber for whole-cell patch-clamp recording. Extrasynaptic NMDA receptors in voltage-clamped cortical neurons were activated by NMDA (200 μM) in Mg2+-free ECS using a fast perfusion system (Warner Instruments)."}, "Akt (phospho-Ser473)": {"tested_on": "Akt (phospho-Ser473)", "experiment": "Western blotting of Akt phosphorylation after NMDA treatment", "assay_type": "cell-based, rat", "conditions": "NMDA-treated neurons, western blot", "description": "Twelve hours after treatments, proteins were extracted from neurons using a lysis buffer composed of 150 mM NaCl, 50 mM Tris (pH 7.4), 0.1% SDS, 1% NP-40, 0.5% sodium deoxycholate, 1 mM EDTA, 1 mM Na3VO4, 10 μg/ml each of leupeptin and aprotinin, and 1 mM phenylmethylsulfonyl fluoride. To determine the state of Akt phosphorylation, the samples were separated on 10% SDS-PAGE gels, transferred to PVDF membrane and immunoblotted with anti-phosphoSer473-Akt antibody (Cell Signaling). The same membrane was stripped and reprobed with anti-Akt antibody (Cell Signaling). To determine the activity of caspase-3, the samples were separated on 15% SDS-PAGE gels and transferred to PVDF membranes, which were then sequentially probed with antibodies against cleaved caspase-3 (Asp175, Cell Signaling) and β-tubulin (Sigma)."}, "[3]": {"molecular_target": "T2, extrasynaptic NMDA receptors (Rattus norvegicus, UniProt Q00959)", "T2 construct": "both NR2A- and NR2B-containing receptor subtypes are expressed in these neurons; endogenous in cells; host or cells: primary cortical neurons from E18 Sprague-Dawley rat embryos, 11-14 DIV", "T2 sequence (Q00959 23-1464, other chains not shown)": "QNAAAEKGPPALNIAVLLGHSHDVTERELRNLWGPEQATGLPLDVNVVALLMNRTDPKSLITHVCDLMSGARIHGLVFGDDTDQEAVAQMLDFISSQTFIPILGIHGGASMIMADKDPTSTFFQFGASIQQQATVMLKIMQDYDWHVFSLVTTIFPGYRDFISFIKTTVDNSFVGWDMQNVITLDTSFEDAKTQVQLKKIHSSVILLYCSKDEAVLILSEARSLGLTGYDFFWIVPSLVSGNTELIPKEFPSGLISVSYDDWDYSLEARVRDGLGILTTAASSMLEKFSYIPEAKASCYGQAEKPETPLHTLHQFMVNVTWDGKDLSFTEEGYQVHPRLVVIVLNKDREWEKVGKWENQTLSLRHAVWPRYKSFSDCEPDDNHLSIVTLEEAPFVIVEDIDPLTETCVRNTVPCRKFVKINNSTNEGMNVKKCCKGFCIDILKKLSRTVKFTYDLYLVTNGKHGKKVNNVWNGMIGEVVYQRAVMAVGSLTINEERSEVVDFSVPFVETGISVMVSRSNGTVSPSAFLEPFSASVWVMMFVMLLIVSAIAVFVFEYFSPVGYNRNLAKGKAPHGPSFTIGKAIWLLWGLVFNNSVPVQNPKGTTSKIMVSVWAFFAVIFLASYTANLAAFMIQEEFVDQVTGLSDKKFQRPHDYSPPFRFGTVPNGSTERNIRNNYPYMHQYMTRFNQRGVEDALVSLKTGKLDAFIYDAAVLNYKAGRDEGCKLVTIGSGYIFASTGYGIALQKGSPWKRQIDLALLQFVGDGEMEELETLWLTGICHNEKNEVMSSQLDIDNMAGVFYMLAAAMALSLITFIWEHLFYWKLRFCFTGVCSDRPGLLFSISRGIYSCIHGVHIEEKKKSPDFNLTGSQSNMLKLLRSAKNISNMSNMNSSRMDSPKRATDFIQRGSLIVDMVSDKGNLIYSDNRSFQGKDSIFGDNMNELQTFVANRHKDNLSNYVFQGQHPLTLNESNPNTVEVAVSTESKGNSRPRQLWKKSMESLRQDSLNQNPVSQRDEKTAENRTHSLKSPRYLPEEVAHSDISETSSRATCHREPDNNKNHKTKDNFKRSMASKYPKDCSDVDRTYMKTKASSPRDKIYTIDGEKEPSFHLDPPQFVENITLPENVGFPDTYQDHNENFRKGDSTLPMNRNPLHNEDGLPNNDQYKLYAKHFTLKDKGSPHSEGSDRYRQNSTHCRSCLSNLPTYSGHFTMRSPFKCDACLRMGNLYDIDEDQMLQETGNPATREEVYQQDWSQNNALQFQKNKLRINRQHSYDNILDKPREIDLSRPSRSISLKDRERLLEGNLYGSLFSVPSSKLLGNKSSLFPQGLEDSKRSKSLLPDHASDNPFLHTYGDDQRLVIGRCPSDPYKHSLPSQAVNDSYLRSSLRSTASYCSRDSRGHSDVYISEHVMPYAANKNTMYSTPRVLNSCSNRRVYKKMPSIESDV", "experiment": "NMDA-induced currents mediated by extrasynaptic NMDA receptors", "assay_type": "cell-based", "conditions": "in presence of Ro 25-6981; NVP-AAM077 0.4 μM", "description": "as §3, §4"}, "[4]": {"tested_on": "extrasynaptic NMDA receptors", "experiment": "NMDA-induced currents mediated by extrasynaptic NMDA receptors", "assay_type": "cell-based, rat", "conditions": "NMDA 200 μM; n=5", "description": "as §3, §4"}, "cortical neurons [5]": {"tested_on": "cortical neurons", "experiment": "Staurosporine (STS)-induced neuronal apoptosis", "assay_type": "cell-based, rat", "conditions": "co-application of NVP-AAM077 0.4 μM", "source_text": "In alternative aspects of the invention, we have achieved specific activation of NR2A-containing receptors using two different strategies. First, we examined the effect of selective activation of extrasynaptic NR2A-containing receptor activation on neuronal appopotosis induced by staurosporine (STS), a potent apoptosis inducer (Budd et al., 2000). […] The NMDA-induced neuronal protection was indeed mediated by NR2A-containing receptors as it was prevented by co-application of NVP-AAM077 (p<0.001 compared with STS alone).\nas §1, §2"}},
  "data": [
    {"smiles": "C[C@@H](CN1CCC(Cc2ccccc2)CC1)[C@@H](O)c1ccc(O)cc1", "note": "(relative stereo) [Ro 25-6981, [R-(R*,S*)]-α-(4-Hydroxyphenyl)-β-methyl-4-(phenylmethyl)-1-piperidinepropanol]", "values": [
      {"measurement": "effect on NR2A blockade (NVP-AAM077 + bicuculline)-induced neuronal apoptosis", "setting": "cortical neurons [1]; plus NVP-AAM077", "result": "prevented"},
      {"measurement": "neuronal apoptosis on co-application with bicuculline", "setting": "cortical neurons [1]", "result": "did not cause apoptotic cell death"},
      {"measurement": "effect on extrasynaptic NMDA receptor-mediated currents", "setting": "[2]", "result": "largely reduced"}
    ]},
    {"smiles": "C[C@H](NC(c1cccc2[nH]c(=O)c(=O)[nH]c12)P(=O)(O)O)c1ccc(Br)cc1", "note": "(some centres unmarked) [NVP-AAM077]", "values": [
      {"measurement": "effect on NMDA-induced reduction in Akt kinase activity (S473 dephosphorylation)", "setting": "Akt (phospho-Ser473)", "result": "slightly increased the NMDA-induced reduction in Akt activity"},
      {"measurement": "neuronal apoptosis on co-application with bicuculline", "setting": "cortical neurons [1]", "result": "significantly increased neuronal apoptosis"},
      {"measurement": "effect on residual, NR2B antagonist-resistant extrasynaptic current", "setting": "[3]", "result": "virtually completely blocked"},
      {"measurement": "share of total extrasynaptic NMDA receptor currents mediated by NR2A-containing receptors (Ro 25-6981-resistant, NVP-AAM077-blocked)", "setting": "[4]", "result": "about 26.6±2.3%"},
      {"measurement": "effect on NMDA-induced protection against STS", "setting": "cortical neurons [5]", "result": "prevented"}
    ]}
  ]
}
